# Assay results from patent US11767322B2 (BRISTOL-MYERS SQUIBB COMPANY, priority 2020, dated 2023).
# Read-outs that look alike come from different tables or passages of the source.
# Experiments:
# [1] = target: T1, His-GST-TVMV-hRIPK1(1-324) (Homo sapiens, UniProt Q13546); assay: biochemical; type: binding
# T1 construct: The coding region of human RIPK1(1-324) flanked by NdeI site at 5′ end; made in house; host or cells: Spodoptera frugiperda Sf9 insect cells (baculovirus, Bac-to-Bac)
# T1 sequence (Q13546 1-324): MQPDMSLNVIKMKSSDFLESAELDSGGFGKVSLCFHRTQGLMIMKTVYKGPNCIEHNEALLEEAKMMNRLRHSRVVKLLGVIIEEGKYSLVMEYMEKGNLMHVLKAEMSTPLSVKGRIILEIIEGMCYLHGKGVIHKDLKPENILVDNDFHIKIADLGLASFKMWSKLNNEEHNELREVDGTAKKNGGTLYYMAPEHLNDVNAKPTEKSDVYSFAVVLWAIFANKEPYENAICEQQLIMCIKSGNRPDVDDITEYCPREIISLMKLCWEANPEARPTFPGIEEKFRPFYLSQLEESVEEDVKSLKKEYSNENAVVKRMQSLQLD
# [2] = system: MLKL phosphorylation in HT29-L23 human colorectal adenocarcinoma cells; assay: MLKL phosphorylation high-content assay; type: cell-based
# [3] = target: GST-tagged PIK3Cδ in complex with PIK3R1 (Homo sapiens, UniProt O00329); assay: PI3Kδ HTRF binding assay; conditions: read-out: PIK3CD IC50
# [4] = HTRF probe displacement, 1 h at rt, read-out: RIPK1 IC50
# [5] = Homo sapiens, 6 h, read-out: pMLKL IC50, HT29-L23 cells, necroptosis induced with TNFα, SMAC mimetic and Z-VAD, 6 h, maximal inhibition defined by Nec1s
# [6] = HTRF probe displacement, 1 h at rt
# [7] = read-out: pMLKL IC50, HT29-L23 cells, necroptosis induced with TNFα, SMAC mimetic and Z-VAD, 6 h, maximal inhibition defined by Nec1s
# [8] = Homo sapiens, 6 h, HT29-L23 cells, necroptosis induced with TNFα, SMAC mimetic and Z-VAD, 6 h, maximal inhibition defined by Nec1s, read-out: pMLKL IC50
# [9] = Homo sapiens, Table 22, compounds of the present invention, read-out: pMLKL IC50
# [10] = HT29-L23 cells, necroptosis induced with TNFα, SMAC mimetic and Z-VAD, 6 h, maximal inhibition defined by Nec1s, read-out: pMLKL IC50
# [11] = Table 22, compounds of the present invention, read-out: pMLKL IC50
# GST-tagged PIK3Cδ in complex with PIK3R1, sequence (O00329 whole entry): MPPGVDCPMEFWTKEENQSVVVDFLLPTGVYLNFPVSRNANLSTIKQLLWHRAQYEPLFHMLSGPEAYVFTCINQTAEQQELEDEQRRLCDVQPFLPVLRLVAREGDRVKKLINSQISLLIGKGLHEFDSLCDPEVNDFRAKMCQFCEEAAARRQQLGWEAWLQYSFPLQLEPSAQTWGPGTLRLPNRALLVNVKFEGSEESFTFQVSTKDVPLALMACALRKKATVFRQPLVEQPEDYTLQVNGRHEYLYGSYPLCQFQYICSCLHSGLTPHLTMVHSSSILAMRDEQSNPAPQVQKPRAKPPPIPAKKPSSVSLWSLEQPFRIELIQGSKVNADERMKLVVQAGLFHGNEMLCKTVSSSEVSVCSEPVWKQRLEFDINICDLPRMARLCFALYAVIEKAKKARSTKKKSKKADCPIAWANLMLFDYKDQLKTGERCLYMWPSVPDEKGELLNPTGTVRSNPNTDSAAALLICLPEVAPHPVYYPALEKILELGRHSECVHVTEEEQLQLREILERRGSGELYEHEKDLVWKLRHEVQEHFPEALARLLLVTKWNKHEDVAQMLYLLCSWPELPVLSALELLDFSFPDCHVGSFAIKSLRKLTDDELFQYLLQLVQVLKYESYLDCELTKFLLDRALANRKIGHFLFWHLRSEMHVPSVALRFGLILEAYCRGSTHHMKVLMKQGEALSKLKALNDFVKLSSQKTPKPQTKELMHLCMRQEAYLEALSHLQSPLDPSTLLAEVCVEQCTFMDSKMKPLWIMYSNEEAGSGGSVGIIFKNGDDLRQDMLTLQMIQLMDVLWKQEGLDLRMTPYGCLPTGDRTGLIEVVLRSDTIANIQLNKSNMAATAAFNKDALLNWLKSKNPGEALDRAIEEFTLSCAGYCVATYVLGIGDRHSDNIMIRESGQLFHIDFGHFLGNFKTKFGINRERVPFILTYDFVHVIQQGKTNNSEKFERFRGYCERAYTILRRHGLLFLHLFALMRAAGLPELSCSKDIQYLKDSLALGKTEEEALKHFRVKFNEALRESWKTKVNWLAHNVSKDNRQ
# GST-tagged PIK3Cδ in complex with PIK3R1, sequence (P27986 whole entry partner): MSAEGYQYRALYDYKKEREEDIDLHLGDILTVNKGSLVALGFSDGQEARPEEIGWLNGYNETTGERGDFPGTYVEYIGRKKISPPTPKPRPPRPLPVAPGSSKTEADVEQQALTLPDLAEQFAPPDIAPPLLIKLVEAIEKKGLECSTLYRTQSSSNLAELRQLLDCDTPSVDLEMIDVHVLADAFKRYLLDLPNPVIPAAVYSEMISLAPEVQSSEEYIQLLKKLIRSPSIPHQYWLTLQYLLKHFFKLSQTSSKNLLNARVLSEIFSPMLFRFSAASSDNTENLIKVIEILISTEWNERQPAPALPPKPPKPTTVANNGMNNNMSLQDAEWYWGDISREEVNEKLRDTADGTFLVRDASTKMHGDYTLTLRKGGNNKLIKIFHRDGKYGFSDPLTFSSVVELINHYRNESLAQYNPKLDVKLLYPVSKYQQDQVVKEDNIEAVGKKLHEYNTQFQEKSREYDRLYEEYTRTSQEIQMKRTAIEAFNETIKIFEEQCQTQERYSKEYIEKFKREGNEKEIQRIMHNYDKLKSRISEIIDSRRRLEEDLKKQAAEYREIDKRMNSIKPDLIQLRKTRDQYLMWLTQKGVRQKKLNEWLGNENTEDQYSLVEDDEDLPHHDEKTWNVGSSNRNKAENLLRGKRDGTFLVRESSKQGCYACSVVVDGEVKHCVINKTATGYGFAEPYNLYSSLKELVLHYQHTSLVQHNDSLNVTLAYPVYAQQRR
SMILES,"IC50 [1, 4]","IC50 [3, 6]",further results
"CCc1ccc(-c2ccn3nc(N)nc3c2)c(F)c1C(=O)NCC(F)(F)C(O)c1ccc(F)cn1 (single isomer, unassigned) [Example 266, 3-(2-amino-[1,2,4]triazolo[1,5-a]pyridin-7-yl)-N-(2,2-difluoro-3-(5-fluoropyridin-2-yl)-3-hydroxypropyl)-6-ethyl-2-fluorobenzamide]",13 nM,> 15000 nM,"IC50 [2, 5]: 2.4 nM"
"Cc1cc(F)c(-c2ccn3nc(N)nc3c2)cc1C(=O)NCCC(O)c1ccc(F)cc1 (single isomer, unassigned) [Example 9, 5-(2-amino-[1,2,4]triazolo[1,5-a]pyridin-7-yl)-4-fluoro-N-(3-(4-fluorophenyl)-3-hydroxypropyl)-2-methylbenzamide]",6.2 nM,> 15000 nM,"IC50 ([1]; Table 22, compounds of the present invention, read-out: RPIK1 IC50): 6.2 nM; IC50 [2, 5]: 2.4 nM; IC50 ([2]; Homo sapiens, read-out: pMLKL IC50, Table 22, compounds of the present invention): 2.4 nM"
"Cc1ccc(-c2ccn3nc(N)nc3c2)c(F)c1C(=O)NCCC(O)C1CCCCC1 (single isomer, unassigned) [Example 41, 3-(2-amino-[1,2,4]triazolo[1,5-a]pyridin-7-yl)-N-(3-cyclohexyl-3-hydroxypropyl)-2-fluoro-6-methylbenzamide]",5.4 nM,> 15000 nM,"IC50 [2, 7]: 7.7 nM"
"Cc1ccc(-c2ccn3nc(N)nc3c2)c(F)c1C(=O)NC(C)CC(O)c1ccc(F)cc1 (single isomer, unassigned) [Example 38, 3-(2-amino-[1,2,4]triazolo[1,5-a]pyridin-7-yl)-2-fluoro-N-(4-(4-fluorophenyl)-4-hydroxybutan-2-yl)-6-methylbenzamide]",4.7 nM,> 15000 nM,"IC50 [2, 7]: 6 nM"
"Cc1cc(F)c(-c2ccn3nc(N)nc3c2)c(F)c1C(=O)NCC[C@@H](O)c1ccc(Cl)cc1 [Example 278, (R)-3-(2-amino-[1,2,4]triazolo[1,5-a]pyridin-7-yl)-N-(3-(4-chlorophenyl)-3-hydroxypropyl)-2,4-difluoro-6-methylbenzamide]",13 nM,> 15000 nM,"IC50 [2, 5]: 38 nM"
"CC(O)(c1ccc(F)cc1)C(F)(F)CNC(=O)c1c(Cl)ccc(-c2ccn3nc(N)nc3c2)c1F (single isomer, unassigned) [Example 89, 3-(2-amino-[1,2,4]triazolo[1,5-a]pyridin-7-yl)-6-chloro-N-(2,2-difluoro-3-(4-fluorophenyl)-3-hydroxybutyl)-2-fluorobenzamide]",7.7 nM,> 15000 nM,–
"Nc1nc2cc(-c3ccc(Cl)c(C(=O)NCC(F)(F)C(O)c4cnc(Cl)c(Cl)c4)c3F)ccn2n1 (single isomer, unassigned) [Example 271]",–,11000 nM,IC50 ([1]; RIPK1 IC50): 1.5 nM
"[2H]C([2H])(CC([2H])(O)c1ccc(Cl)cc1)NC(=O)c1c(F)ccc(-c2ccn3nc(N)nc3c2)c1F (single isomer, unassigned) [Example 251, 3-(2-amino-[1,2,4]triazolo[1,5-a]pyridin-7-yl)-N-(3-(4-chlorophenyl)-3-hydroxypropyl-1,1,3-d3)-2,6-difluorobenzamide]",16 nM,> 15000 nM,–
"Nc1nc2cc(-c3ccc(Cl)c(C(=O)NCC[C@@H](O)c4ccc(Cl)cc4)c3)ccn2n1 [Example 90, (R)-5-(2-amino-[1,2,4]triazolo[1,5-a]pyridin-7-yl)-2-chloro-N-(3-(4-chlorophenyl)-3-hydroxypropyl)benzamide]",–,> 15000 nM,"IC50 [2, 8]: 15 nM"
"CC(CCNC(=O)c1cc(-c2ccn3nc(N)nc3c2)ccc1Cl)c1ccccc1 (stereo not drawn) [Example 92, 5-(2-amino-[1,2,4]triazolo[1,5-a]pyridin-7-yl)-2-chloro-N-(3-phenylbutyl)benzamide]",–,5200 nM,"IC50 [2, 8]: 11 nM; IC50 [2, 9]: 11 nM"
"COc1c(-c2ccc(C)c(C(=O)NCC[C@H](O)c3ccc(Cl)cc3)c2F)ccn2nc(N)nc12 (single isomer, unassigned; enantiomer 2) [Example 136]",5.9 nM,–,IC50 [3]: > 15000 nM
"Nc1nc2cc(-c3c(F)ccc(C(=O)NCC[C@@H](O)c4ccc(Cl)cc4)c3F)ccn2n1 [Example 220, (R)-3-(2-amino-[1,2,4]triazolo[1,5-a]pyridin-7-yl)-N-(3-(4-chlorophenyl)-3-hydroxypropyl)-2,4-difluorobenzamide]",–,> 15000 nM,"IC50 [2, 8]: 36 nM"
"Cc1c(C(=O)NC(CF)CC(O)c2ccc(Cl)cc2)cc(-c2ccn3nc(N)nc3c2)c(F)c1F (racemic) [Example 102, 5-(2-amino-[1,2,4]triazolo[1,5-a]pyridin-7-yl)-N-(4-(4-chlorophenyl)-1-fluoro-4-hydroxybutan-2-yl)-3,4-difluoro-2-methylbenzamide]",–,> 15000 nM,"IC50 [2, 10]: 7.6 nM"
"Cc1ccc(-c2ccn3nc(N)nc3c2)c(F)c1C(=O)NC(C)CC(O)c1ccc(Cl)cc1 (racemic) [Example 19, 3-(2-amino-[1,2,4]triazolo[1,5-a]pyridin-7-yl)-N-[4-(4-chlorophenyl)-4-hydroxybutan-2-yl]-2-fluoro-6-methylbenzamide]",–,> 15000 nM,"IC50 [2, 10]: 7.7 nM; IC50 [2, 11]: 7.7 nM"
"Cc1c(C(=O)NC(CF)CC(O)c2ccc(Cl)cc2)cc(-c2ccn3nc(N)nc3c2)c(F)c1F (racemic) [Example 103, 5-(2-amino-[1,2,4]triazolo[1,5-a]pyridin-7-yl)-N-(4-(4-chlorophenyl)-1-fluoro-4-hydroxybutan-2-yl)-3,4-difluoro-2-methylbenzamide]",–,> 15000 nM,"IC50 [2, 10]: 2060 nM"
"Cc1ccc(-c2ccn3nc(N)nc3c2)c(F)c1C(=O)NCCC(=O)c1ccc(Cl)cc1 [Example 143, 3-{2-amino-[1,2,4]triazolo[1,5-a]pyridin-7-yl}-N-[3-(4-chlorophenyl)-3-oxopropyl]-2-fluoro-6-methylbenzamide]",–,> 15000 nM,"IC50 [2, 5]: 2.4 nM"
"Cc1ccc(-c2ccn3nc(N)nc3c2)c(F)c1C(=O)NCC[C@H](O)c1ccc(C#N)cc1 [Example 139, 3-{2-amino-[1,2,4]triazolo[1,5-a]pyridin-7-yl}-N-[(3S)-3-(4-cyanophenyl)-3-hydroxypropyl]-2-fluoro-6-methylbenzamide]",–,> 15000 nM,"IC50 [2, 8]: 7.4 nM"
"Cc1ccc(-c2ccn3nc(N)nc3c2)c(F)c1C(=O)NC(C)CC(O)c1ccc(Cl)cc1 (racemic) [Example 20, 3-(2-amino-[1,2,4]triazolo[1,5-a]pyridin-7-yl)-N-[4-(4-chlorophenyl)-4-hydroxybutan-2-yl]-2-fluoro-6-methylbenzamide]",–,> 15000 nM,"IC50 [2, 10]: 3.6 nM; IC50 [2, 11]: 3.6 nM"
"Cc1cc(F)c(-c2ccn3nc(N)nc3c2)cc1C(=O)NCCC(O)c1ccc(C(F)(F)F)cc1 (single isomer, unassigned) [Example 4, 5-(2-amino-[1,2,4]triazolo[1,5-a]pyridin-7-yl)-4-fluoro-N-(3-hydroxy-3-(4-(trifluoromethyl)phenyl)propyl)-2-methylbenzamide]",–,> 15000 nM,"IC50 [2, 7]: 1 nM"
"Cc1ccc(-c2ccn3nc(N)nc3c2)c(F)c1C(=O)NCCC(O)c1ccc(F)c(F)c1 (single isomer, unassigned) [Example 66, 3-(2-amino-[1,2,4]triazolo[1,5-a]pyridin-7-yl)-N-(3-(3,4-difluorophenyl)-3-hydroxypropyl)-2-fluoro-6-methylbenzamide]",–,> 15000 nM,"IC50 [2, 8]: 1.2 nM; IC50 [2, 9]: 1.2 nM"
